Test results: US20130137084A1, “Single Nucleotide Polymorphism on Chromosome 15 That Predicts HCV Treatment Responses” (Roche Molecular Systems, Inc., priority 2011, published 2013)

How the values were obtained:
[1] = system: chronic Hepatitis C genotype 1 infection; test: Study NV21075 Phase 2 clinical study, virological response (undetectable HCV RNA) during the first 12 weeks of treatment; type: in vivo, human patients; settings: for percentage of patients with undetectable HCV RNA levels at the end of 12 weeks of treatment: limit of detection 15 IU/mL, preliminary interim analysis
Description: Study NV21075 was a randomized double-blinded multicenter Phase 2 clinical study to evaluate the efficacy and safety of danoprevir in combination with peginterferon alfa 2a and ribavirin (triple therapy combination) when dosed for twelve weeks in treatment-naïve patients with chronic Hepatitis C genotype 1 infection as compared to the currently approved combination of peginterferon alfa 2a and ribavirin (Standard of Care or SOC). Patients enrolled in Study NV21075 were randomized into one of four treatment groups (FIG. 1) (approximately 60 patients for Groups A-C, approximately 30 patients for Group D). In the response-guided treatment groups (as described below), patients with an extended RVR (eRVR, defined as undetectable HCV RNA from […]) stopped all therapy at Week 24.
Patients received double blinded experimental treatment with danoprevir at 300 mg TID (Group A), 600 mg BID (Group B), or 900 mg BID (Group C) and standard of care treatment (SOC, Pegasys 180 μg sc qw+Copegus 1000 mg (<75 kg) or 1200 mg (≧75 kg) po qd) for 12 weeks, followed by SOC for 12 weeks. Patients who achieve an RVR, defined as undetectable HCV RNA at week 4, and remain undetectable through week 22 (i.e. achieving eRVR) stopped all treatment at week 24. […] Treatment Group D: Patients received double blinded placebo treatment for 12 weeks, followed by SOC for 36 weeks for a total duration of 48 weeks.
For the interim analysis of NV21075, efficacy during the first 12 weeks of treatment was measured by the percentage of patients with virological response (undetectable HCV RNA as measured by the Roche Cobas® AmpliPrep/Cobas® Taqman® HCV Test v1.0 [limit of detection 15 IU/mL]). Patients were considered non-responders at a scheduled visit if they had missing data, which may have been due to an assessment that was missed or fell outside of the allowable window for that visit, or an early withdrawal from treatment with a missing follow-up assessment.

HCV = settings: RBV monotherapy; cited from earlier work

CC(C)(C)OC(=O)N[C@H]1CCCCC/C=C\[C@@H]2C[C@@]2(C(=O)NS(=O)(=O)C2CC2)NC(=O)[C@@H]2C[C@@H](OC(=O)N3Cc4cccc(F)c4C3)CN2C1=O [Danoprevir, 4-Fluoro-1,3-dihydro-isoindole-2-carboxylic acid (Z)-(1S,4R,6S,14S,18R)-14-tert-butoxycarbonylamino-4-cyclopropanesulfonylaminocarbonyl-2,15-dioxo-3,16-diaza-tricyclo[14.3.0.0*4,6*]nonadec-7-en-18-yl ester]
percentage of patients with undetectable HCV RNA levels at the end of 12 weeks of treatment ([1]; Treatment Group A: danoprevir 300 mg TID plus SOC): 88.1%
percentage of patients with undetectable HCV RNA levels at the end of 12 weeks of treatment ([1]; Treatment Group B: danoprevir 600 mg BID plus SOC): 89.2%
percentage of patients with undetectable HCV RNA levels at the end of 12 weeks of treatment ([1]; Treatment Group C: danoprevir 900 mg BID plus SOC): 92.0%
change in mean HCV RNA levels ([1]; danoprevir plus SOC, within the first 2 to 4 weeks of treatment, remained lower than SOC up to Week 12): precipitous decline

NC(=O)c1ncn([C@@H]2O[C@H](CO)[C@@H](O)[C@H]2O)n1 [ribavirin, 1-((2R,3R,4S,5R)-3,4-Dihydroxy-5-hydroxymethyl-tetrahydro-furan-2-yl)-1H-[1,2,4]triazole-3-carboxylic acid amide]
effect on the replication of HCV (HCV): little or no effect
